Patent US12157745B2, “Heterocyclic systems and pharmaceutical compositions thereof” (University of Sharjah, priority 2018, dated 2024)

Columns and labels:
[1] = test system: Bid, Bax, caspase-3 & -9, Bcl-xL; test: Western blot and annexin V, pro- and anti-apoptotic proteins; type: cell-based; settings: western blot, confirmed by annexin V study
Experimental: Over-expression of this oncogene could result in tumor cell proliferation and migration and therefore its inhibition may halt tumor growth. Other pro-apoptotic (Bid, Bax, caspase-3 & -9) and anti-apoptotic (Bcl-xL) proteins were also modulated by compound it as evident from western blot analysis and as confirmed by annexin V study (FIG. 7).
(§1) The MCF-7, SKBR3 and HCT116 total cell lysate were prepared after 24 hours of treatment with compound it at IC50 and DIC50 doses by using 1× laemmli buffer. Total protein concentration was then estimated for each sample and 15-30 μg of protein lysate were loaded equally on 12% SDS-PAGE gel in order to detect various proteins expression levels. In short, the membrane was incubated with different primary antibodies (as mentioned in above section) (1:1000) overnight after blocking with 5% non-fat milk solution for 1 hour. The membrane was then re-probed with respective mouse/rabbit secondary antibodies (1:2000) for 1 h, and later developed by enhanced chemiluminescence (ECL) method by using a Chemidoc MP (BioRad, Germany).
The apoptotic level was measured using a kit method as per supplier's protocol. […] 2×10^6 cells were counted and re-suspended in 1 mL of binding buffer (1×). […] 400 μL of IX binding buffer was finally added to the cells and analyzed immediately by using by a flow cytometer (BD, Accuri C6).

[2] = biological target: T1, dihydrolipoamide dehydrogenase (Homo sapiens, UniProt P09622); test: DARTS proteomic assay; type: binding; settings: FIG. 15
T1 construct: HEK293T cells were lysed using M-PER; endogenous in cells; host or cells: HEK293T lysate
T1 sequence (P09622 36-509): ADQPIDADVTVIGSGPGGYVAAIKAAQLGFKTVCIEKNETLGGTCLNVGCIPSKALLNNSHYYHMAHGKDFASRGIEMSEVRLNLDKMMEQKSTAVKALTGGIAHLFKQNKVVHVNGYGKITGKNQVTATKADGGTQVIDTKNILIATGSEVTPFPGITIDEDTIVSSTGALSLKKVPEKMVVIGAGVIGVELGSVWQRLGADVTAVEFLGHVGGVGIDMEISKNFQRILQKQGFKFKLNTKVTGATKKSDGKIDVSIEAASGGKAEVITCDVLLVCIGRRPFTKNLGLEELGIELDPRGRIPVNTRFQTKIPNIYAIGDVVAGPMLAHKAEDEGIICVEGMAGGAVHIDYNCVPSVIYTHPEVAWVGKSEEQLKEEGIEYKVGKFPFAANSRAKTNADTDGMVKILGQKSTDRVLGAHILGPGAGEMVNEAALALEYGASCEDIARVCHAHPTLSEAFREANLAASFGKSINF
From the text: (§2) The unique properties of compound it prompted an in-depth analysis to explore its potential novel targets.
Dihydrolipoamide dehydrogenase (DLD) is a mitochondrial enzyme involved in metabolic process that is encoded by the DLD gene. Not many studies have been done to identify the direct involvement of this enzyme in cancers. However, a deregulated level of DLD may modulate mitochondrial-mediated diseases and may impair normal metabolic processes. […] The presently disclosed data is encouraging and indicates compound it may potentially be used to target multiple key enzymes that are involved in tumor development and progression.
A DARTS assay was used to assess the binding of compound 1t. HEK293T cells were lysed using M-PER (Thermo Scientific, Inc.) supplemented with protease and phosphatase inhibitors (Lysis buffer). 4.7 mg/mL of protein and TNC buffer (10 mM Tris, 140 mMNaCl, 5 mM CaCl2)) was added, compound it was diluted in DMSO to 3 different concentrations (0.01 μM, 0.1 μM, 1 μM) and incubated for one hour at room temperature. Trypsin (Promega) was added and incubated for 3 hours at 37° C. Thereafter, M-PER lysis buffer was added and the samples were concentrated with Microcon 10K centrifugal filters. The proteins were identified by gel electrophoresis liquid chromatography mass spectroscopy (GelLCMS).

[3] = biological target: T2, transketolase (Homo sapiens, UniProt P29401); test: DARTS proteomic assay; type: binding; settings: dose-dependent manner, FIG. 10
T2 construct: HEK293T cells were lysed using M-PER; endogenous in cells; host or cells: HEK293T lysate
T2 sequence (P29401 whole entry): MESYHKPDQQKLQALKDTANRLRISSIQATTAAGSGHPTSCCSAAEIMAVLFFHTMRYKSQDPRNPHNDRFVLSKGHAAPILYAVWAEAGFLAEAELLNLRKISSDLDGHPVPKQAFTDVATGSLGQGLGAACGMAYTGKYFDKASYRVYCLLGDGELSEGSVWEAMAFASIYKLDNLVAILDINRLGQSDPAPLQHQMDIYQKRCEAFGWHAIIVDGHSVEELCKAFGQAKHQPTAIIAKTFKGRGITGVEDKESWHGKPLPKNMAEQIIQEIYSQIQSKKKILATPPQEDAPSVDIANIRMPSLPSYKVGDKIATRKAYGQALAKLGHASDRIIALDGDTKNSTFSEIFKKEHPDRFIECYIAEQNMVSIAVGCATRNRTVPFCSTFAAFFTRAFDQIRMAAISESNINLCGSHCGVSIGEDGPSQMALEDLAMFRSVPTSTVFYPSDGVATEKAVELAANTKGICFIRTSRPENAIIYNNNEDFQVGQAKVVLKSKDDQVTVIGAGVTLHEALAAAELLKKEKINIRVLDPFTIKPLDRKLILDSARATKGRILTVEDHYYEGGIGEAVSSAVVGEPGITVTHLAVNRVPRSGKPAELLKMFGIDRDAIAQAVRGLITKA
From the text: as §2
As TKT reaction plays a pivotal role in pentose phosphate pathway, inhibition of TKT will suppress the pentose phosphate pathway and interrupt the synthesis of coenzymes, ATP, CoA, NAD(P)+, FAD, RNA, and DNA in cancer cells. The over-expressed TKT is reported in many cancer cells, tissues, and patients, wherein it regulates proliferation and viability. A strategy of silencing TKT has shown significant effect in reducing tumor burden in gastric cancer cells. Recent studies have shown that targeting TKT has clinical relevance in cancer therapy, as it can counteract the effect of oxidative stress, a critical factor in cancer development.
A DARTS assay was used to assess the binding of compound 1t. HEK293T cells were lysed using M-PER (Thermo Scientific, Inc.) supplemented with protease and phosphatase inhibitors (Lysis buffer). 4.7 mg/mL of protein and TNC buffer (10 mM Tris, 140 mMNaCl, 5 mM CaCl2)) was added, compound it was diluted in DMSO to 3 different concentrations (0.01 μM, 0.1 μM, 1 μM) and incubated for one hour at room temperature. Trypsin (Promega) was added and incubated for 3 hours at 37° C. Thereafter, M-PER lysis buffer was added and the samples were concentrated with Microcon 10K centrifugal filters. […]

[4] = test system: MCF7 cells; test: Cell synchronization study, antiproliferative effect on synchronized cells; type: cell-based
Experimental: Cell synchronization and tubulin study: The antiproliferative effect of the compound it was tested on MCF7 cells which were synchronized at specific phases of the cell cycle. […] One way of inhibiting cell proliferation in G2/M phase is by altering equilibrium between polymerization and depolymerization of microtubule proteins which is required for active mitotic cell division.

[5] = test system: p53; test: Western blot, p53 expression; type: cell-based; settings: breast cancer cells
Experimental: as §1

Compound: CC1(C)[C@H]2COc3ccc4ccccc4c3[C@H]2N=C2SC(c3ccccc3)=C(c3ccccc3)N21 [Compound 1t]
- Pro-apoptotic (Bid, Bax, caspase-3 & -9) and anti-apoptotic (Bcl-xL) proteins [1]: modulated
- Regulation of dihydrolipoamide dehydrogenase [2]: regulates this enzyme
- Affinity on transketolase [3]: strong affinity
- Sensitivity of G2/M-arrested cells versus asynchronous cells ([4]; MCF7 cells synchronized at specific phases of the cell cycle): more sensitive
- Cells arrested at G2/M phase ([4]; synchronized MCF7 cells): 18.5%
- Expression of p53 [5]: up-regulation
